Key:
Format in all cases: cell-based, Pseudomonas fluorescens
BM07-ΔphaZ [1] = experiment: PHA production, one-step cultivation on 50 mM fructose and 5 mM 11-POU; conditions: 1 mM salicylic acid, 50 mM fructose + 5 mM 11-POU; for Dry cell weight / PHA (aliphatic monomer) / PHA (aromatic monomer) / Polyester content: 30° C.
Procedure: (§1) In the main cultures, 500 μl of the culture grown in NR or LB medium was transferred to 50 ml M1 mineral-salts medium containing 50 mM fructose, 5 mM 11-POU, 0 or 1 mM salicylic acid and 1.0 g/L ammonium sulfate in a 250 mL flask and cultivated at 30° C. Salicylic acid was dissolved by adding sodium hydroxide and the pH of the solution was adjusted to 7.2 before adding to medium. Cell growth was determined by measuring dry cell weight (DCW). The remaining fructose was measured using DNS method and the remaining 11-POU or other carboxylic acids were determined by gas chromatography. The cells were isolated by centrifuging (10,000×g, 10 min), the cell suspension was washed with methanol and dried under vacuum at room temperature for 48 hours. The remaining NH4^+ was measured using Nessler's reagent. In the time-course profiling experiments, a set of culture flasks equal to the planned sampling times (every 4 or 6 h) was prepared and cultivated under the same culture condition. One of the flasks was withdrawn every scheduled time and the medium (50 ml) was centrifuged and analyzed.
(§2) The monomer composition of the PHA in cells was determined by analyzing the methyl esters, recovered from a sulfuric acid/methanol treatment of the cells, using a Hewlett-Packard HP5890 Series II gas chromatograph equipped with a HP-1 capillary column and a flame ionization detector. The gas chromatography (GC) run conditions were as follows: initial temperature of 80° C. for 2 min; heating rate of 8° C./min; final temperature of 250° C. for 6.75 min; carrier (He) flow rate of 3 ml/min; injector temperature of 230° C.; and detector temperature of 280° C. The standardization of each GC peak was made against the PHA of known structure characterized by quantitative NMR analyses

[2] = test system: P. fluorescens BM07 wild-type; experiment: as above; conditions: 1 mM salicylic acid, 50 mM fructose + 5 mM 11-POU; for Dry cell weight / PHA (aliphatic monomer) / PHA (aromatic monomer) / Polyester content: 30° C.
Procedure: as §1, §2

BM07 wild-type = experiment: Aromatic PHA production, one-step cultivation on 50 mM fructose and 10 mM 5-PV or 6PC; conditions: 1 mM salicylic acid, 30° C.
Procedure: as §1, with “In the main cultures, 500 μl of the culture grown in NR or LB medium was transferred to 50 ml M1 mineral-salts medium containing 50 mM fructose, 5 mM 11-POU, 0 or 1 mM salicylic acid and 1.0 g/L ammonium sulfate in a 250 mL flask and cultivated at 30° C.” left out
as §2

BM07-ΔphaZ [3] = experiment: as above; conditions: 1 mM salicylic acid, 30° C., culture time 72 h
Procedure: as §1, with “In the main cultures, 500 μl of the culture grown in NR or LB medium was transferred to 50 ml M1 mineral-salts medium containing 50 mM fructose, 5 mM 11-POU, 0 or 1 mM salicylic acid and 1.0 g/L ammonium sulfate in a 250 mL flask and cultivated at 30° C.” left out
as §2

BM07 (pBBR-phaZ) = experiment: PHA production on 50 mM fructose/5 mM 11-POU in PhaZ over-expressed strain; conditions: 1 mM salicylic acid
Procedure: as §1, with “In the time-course profiling experiments, a set of culture flasks equal to the planned sampling times (every 4 or 6 h) was prepared and cultivated under the same culture condition.” left out
The monomer composition of the PHA in cells was determined by analyzing the methyl esters, recovered from a sulfuric acid/methanol treatment of the cells, using a Hewlett-Packard HP5890 Series II gas chromatograph equipped with a HP-1 capillary column and a flame ionization detector. […] The standardization of each GC peak was made against the PHA of known structure characterized by quantitative NMR analyses

[4] = 50 mM fructose + 10 mM 5PV, culture time 72 h
[5] = 50 mM fructose + 10 mM 6PC, culture time 60 h

In the case of `O=C(O)c1ccccc1O` [Salicylic acid, salicylic acid], the “Content of aliphatic MCL-monomer-units, share of the total PHA” value (BM07-ΔphaZ [1]) is reported as ~10%, the “Effect on accumulation of aromatic PHA from 11-POU” value (BM07-ΔphaZ [1]) is reported as “significantly retarded the accumulation of aromatic PHA from 11-POU” and the “Effect on cell growth” value (BM07-ΔphaZ [1]) is reported as “did not significantly delay the cell growth”. The “Time of maximum PHA accumulation” value (BM07-ΔphaZ [1]) was “around 70 hours”, the “Time of maximum cell growth” value (BM07-ΔphaZ [1]) was 50 to 60 h and the Dry cell weight (BM07-ΔphaZ [1]; culture time 72 h) was 1.68 ± 0.11 g/L. The “PHA (aliphatic monomer)” value (BM07-ΔphaZ [1]; culture time 72 h) was 4.8 ± 0.3 wt. %, the “PHA (aromatic monomer)” value (BM07-ΔphaZ [1]; culture time 72 h) was 44.1 ± 1.6 wt. % and the Polyester content (BM07-ΔphaZ [1]; culture time 72 h) was 48.9 ± 1.9 wt. %. For the same molecule, the Dry cell weight (BM07-ΔphaZ [1]; culture time 96 h) was 1.72 ± 0.09 g/L, the “PHA (aliphatic monomer)” value (BM07-ΔphaZ [1]; culture time 96 h) was 4.3 ± 0.4 wt. % and the “PHA (aromatic monomer)” value (BM07-ΔphaZ [1]; culture time 96 h) was 48.7 ± 1.4 wt. %. The Polyester content (BM07-ΔphaZ [1]; culture time 96 h) was 53.0 ± 1.8 wt. %, the “Incorporation of aliphatic monomer-units, share of the total PHA content” value [2] was ~10% and the Dry cell weight ([2]; culture time 48 h) was 1.36 ± 0.10 g/L. The “PHA (aliphatic monomer)” value ([2]; culture time 48 h) was 3.1 ± 0.2 wt. %, the “PHA (aromatic monomer)” value ([2]; culture time 48 h) was 20.8 ± 0.9 wt. % and the Polyester content ([2]; culture time 48 h) was 23.9 ± 1.1 wt. %. The Dry cell weight ([2]; culture time 72 h) was 1.78 ± 0.06 g/L, the “PHA (aliphatic monomer)” value ([2]; culture time 72 h) was 2.5 ± 0.5 wt. % and the “PHA (aromatic monomer)” value ([2]; culture time 72 h) was 26.8 ± 1.6 wt. %. The Polyester content ([2]; culture time 72 h) was 29.3 ± 2.1 wt. %, the “Aromatic PHA content” value (BM07 wild-type; [4]) was 34.2 ± 1.5 wt. % and the Dry cell weight (BM07 wild-type; [4]) was 1.98 ± 0.08 g/L. For the same molecule, the “Aromatic PHA content” value (BM07 wild-type; [5]) was 32.8 ± 1.7 wt. %, the Dry cell weight (BM07 wild-type; [5]) was 1.78 ± 0.13 g/L and the “Aromatic PHA content” value (BM07-ΔphaZ [3]; 50 mM fructose + 10 mM 5PV) was 49.9 ± 1.3 wt. %. The Dry cell weight (BM07-ΔphaZ [3]; 50 mM fructose + 10 mM 5PV) was 2.10 ± 0.06 g/L, the “Aromatic PHA content” value (BM07-ΔphaZ [3]; 50 mM fructose + 10 mM 6PC) was 35.1 ± 1.2 wt. % and the Dry cell weight (BM07-ΔphaZ [3]; 50 mM fructose + 10 mM 6PC) was 1.72 ± 0.08 g/L. For the same molecule, the “Incorporation of aliphatic monomer-units, share of the total PHA content at the maximum accumulation” value (BM07 (pBBR-phaZ)) was < 4%.

— US8658403B2, “Method for producing polyhydroxyalkanoic acid” (priority 2009, dated 2014)
